Results: US7557110B2, “Pyrazolo[1,5-A] pyrimidine derivatives” (Teijin Pharma Limited, priority 2003, dated 2009)
Where two headings read alike, the source gives them in different places.

How the values were obtained:
CDK-2 = CDK-2 (Homo sapiens, UniProt P24941); assay: CDK-2 enzyme activity inhibition (33P-ATP filter plate kinase assay); assay type: biochemical
From the text: [General Procedure for Measurement of CDK-2 Enzyme Activity Inhibition]

MAPKAP-K2 = MAPKAP-K2 (Homo sapiens, UniProt P49137); assay: MAPKAP-K2 enzyme activity inhibition (33P-ATP filter plate kinase assay); assay type: biochemical; conditions: MAPKAP-K2 inhibitory activity; assays conducted at typically 1-100 μM; note: key: +: active; ++: more active; +++: very active
Description: [General Procedure for Measurement of MAPKAP-K2 Enzyme Activity Inhibition]
After conducting the reaction for 30 minutes at room temperature, an equivalent volume of a 200 mM phosphoric acid solution was added to suspend the reaction, and 90 μL of the reaction product was adsorbed onto a MultiScreen PH plate (Millipore) and rinsed with a 100 mM phosphoric acid solution. After drying the plate, 30 μL of MicroScint-O (Packard BioScience) was added, and the cpm was measured with a scintillation counter to determine the inhibiting activity. Substrate peptide is […]

[1] = read-out: CDK-2 inhibition IC50

Chain of MAPKAP-K2 (P49137 whole entry): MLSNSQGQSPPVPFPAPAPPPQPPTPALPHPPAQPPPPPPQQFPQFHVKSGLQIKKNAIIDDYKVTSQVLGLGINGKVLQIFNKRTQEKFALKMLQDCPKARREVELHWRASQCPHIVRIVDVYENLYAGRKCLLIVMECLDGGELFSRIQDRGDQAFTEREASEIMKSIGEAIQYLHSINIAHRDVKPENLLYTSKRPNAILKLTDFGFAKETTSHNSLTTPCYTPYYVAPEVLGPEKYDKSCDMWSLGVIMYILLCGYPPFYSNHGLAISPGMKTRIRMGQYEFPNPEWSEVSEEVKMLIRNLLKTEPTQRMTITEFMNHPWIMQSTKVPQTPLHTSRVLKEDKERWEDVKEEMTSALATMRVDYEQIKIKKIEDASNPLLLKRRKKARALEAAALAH

| IC50 (CDK-2; [1]) [µM] | activity (efficacy against MAPKAP-K2) (MAPKAP-K2) | IC50 (CDK-2) [µM] | SMILES |
| --- | --- | --- | --- |
| < 100 | +++ |  | Cc1c(N[C@H]2CC[C@H](N)CC2)nc2ccnn2c1Nc1ccc(-c2cn[nH]c2)cc1 [Compound 422] |
| < 100 | +++ |  | Cc1c(N[C@H]2CC[C@H](N)CC2)nc2ccnn2c1Nc1ccc(O)cc1 [Compound 196] |
| < 100 | ++ |  | CCc1c(N[C@H]2CC[C@H](N)CC2)nc2ccnn2c1Nc1cccc(OCc2ccccc2)c1 [Compound 74] |
|  | +++ | < 100 | CC(=O)c1ccc(-c2ccc(Nc3c(C)c(N[C@H]4CCCNC4)nc4ccnn34)cc2)s1 [Compound 773] |
| < 100 | +++ |  | Cc1c(N[C@H]2CC[C@H](N)CC2)nc2ccnn2c1Nc1ccc(-c2ccoc2)cc1 [Compound 309] |
| < 100 | +++ |  | Cc1c(N[C@H]2CC[C@H](N)CC2)nc2ccnn2c1Nc1ccc(-c2ccc(F)cc2)cc1 [Compound 303] |
| < 100 | ++ |  | Cc1c(N[C@H]2CC[C@H](N)CC2)nc2ccnn2c1Nc1ccc(OCc2ccc(N)cc2)cc1 [Compound 204] |
| < 100 | +++ |  | Cc1c(NC2CCC(N)CC2)nc2ccnn2c1Nc1ccc(OCC2CCCO2)cc1 (centres unmarked) [Compound 256] |
| < 100 | +++ |  | Cc1c(N[C@H]2CC[C@H](N)CC2)nc2ccnn2c1Nc1ccc(OCCc2ccccn2)cc1 [Compound 225] |
| < 100 | ++ |  | CCOc1ccc(Nc2c(C)c(N[C@@H]3CCN(Cc4ccccc4)C3)nc3ccnn23)cc1 [Compound 418] |
| < 100 | +++ |  | Cc1c(N[C@H]2CC[C@H](N)CC2)nc2ccnn2c1Nc1ccc(OCCc2ccncc2)cc1 [Compound 228] |
| < 100 | + |  | Cc1c(N[C@H]2CC[C@H](N)CC2)nc2c(C(=O)C(F)(F)F)cnn2c1Nc1ccc(I)cc1 [Compound 417, 1-{5-[(trans-4-aminocyclohexyl)amino]-7-[(4-iodophenyl)amino]-6-methyl(pyrazolo[1,5-a]pyrimidin-3-yl)}-2,2,2-trifluoroethan-1-one] |
| < 100 | +++ |  | Cc1c(N[C@H]2CC[C@H](N)CC2)nc2ccnn2c1Nc1ccc(C(=O)NCc2ccco2)cc1 [Compound 511] |
| < 100 | +++ |  | CCc1c(NC2CCCNC2)nc2ccnn2c1Nc1ccc(Oc2ccc(C)cc2)cc1 (centres unmarked) [Compound 63] |
| < 100 | +++ |  | Cc1c(N[C@H]2CC[C@H](N)CC2)nc2ccnn2c1Nc1ccc(-c2cccnc2)cc1 [Compound 300] |
| < 100 | + |  | CCOc1ccc(Nc2c(C)c(N(CC)C3CCCNC3)nc3ccnn23)cc1 (centres unmarked) [Compound 341] |
| < 100 | +++ |  | Cc1c(N[C@H]2CC[C@H](N)CC2)nc2ccnn2c1Nc1ccc(OCc2ccccc2)cc1 [Compound 176] |
| < 100 | +++ |  | Cc1c(N[C@H]2CC[C@H](N)CC2)nc2ccnn2c1Nc1ccc(-c2cc3ccccc3o2)cc1 [Compound 290] |
| < 100 | +++ |  | CCOC(=O)c1ccc(Nc2c(CC)c(N[C@H]3CC[C@H](N)CC3)nc3ccnn23)cc1Cl [Compound 137] |
| < 100 | ++ |  | CCc1c(N[C@H]2CC[C@H](N)CC2)nc2ccnn2c1Nc1ccccc1OC [Compound 42] |

| IC50 (CDK-2; [1]) [µM] | activity (efficacy against MAPKAP-K2) (MAPKAP-K2) | IC50 (CDK-2) [µM] | SMILES |
| --- | --- | --- | --- |
| < 100 | +++ |  | Cc1c(N[C@H]2CC[C@H](N)CC2)nc2ccnn2c1Nc1ccc(-c2ccc(OC(F)(F)F)cc2)cc1 [Compound 317] |
| < 100 | + |  | CCOc1ccc(Nc2c(C)c(N[C@H]3CC[C@H](N)CC3)nc3c(NC)cnn23)cc1 [Compound 437] |
| < 100 | +++ |  | Cc1c(N[C@H]2CC[C@H](N)CC2)nc2c(F)cnn2c1Nc1ccc(I)cc1 [Compound 441, {5-[(trans-4-aminocyclohexyl)amino]-3-fluoro-6-methyl(pyrazolo[1,5-a]pyrimidin-7-yl)}(4-iodophenyl)amine] |
| < 100 | +++ |  | Cc1c(N[C@H]2CC[C@H](N)CC2)nc2ccnn2c1Nc1ccc(OCCN2CCOCC2)cc1 [Compound 221] |
| < 100 | +++ |  | Cc1c(N[C@H]2CC[C@H](N)CC2)nc2ccnn2c1Nc1ccc(-c2cccc(N(C)C)c2)cc1 [Compound 315] |
| < 100 | +++ |  | Cc1c(NC2CCCNC2)nc2ccnn2c1Nc1ccc(-c2cccc(CO)c2)cc1 (centres unmarked) [Compound 445] |
| < 100 | +++ |  | CNC(=O)c1ccc(Nc2c(C)c(N[C@H]3CC[C@H](N)CC3)nc3ccnn23)cc1 [Compound 460] |
| < 100 | +++ |  | CCOC(=O)c1cccc(Nc2c(C)c(N[C@H]3CC[C@H](N)CC3)nc3ccnn23)c1 [Compound 68] |
| < 100 | +++ |  | Cc1cscc1-c1ccc(Nc2c(C)c(N[C@H]3CC[C@H](N)CC3)nc3ccnn23)cc1 [Compound 421] |
| < 100 | +++ |  | CCOc1ccc(-c2ccc(Nc3c(C)c(N[C@H]4CC[C@H](N)CC4)nc4ccnn34)cc2)cc1 [Compound 356] |
| < 100 | +++ |  | CCS(=O)(=O)c1ccc(-c2ccc(Nc3c(C)c(N[C@H]4CC[C@H](N)CC4)nc4ccnn34)cc2)cc1 [Compound 351] |
| < 100 | ++ |  | Cc1c(N[C@H]2CC[C@H](N)CC2)nc2ccnn2c1Nc1ccc(OC2CCN(C)CC2)cc1 [Compound 217] |
| < 100 | ++ |  | CCCCC(=O)c1cnn2c(Nc3ccc(OCC)cc3)c(C)c(N[C@H]3CC[C@H](N)CC3)nc12 [Compound 362] |
| < 100 | +++ |  | Cc1c(N[C@H]2CC[C@H](N)CC2)nc2ccnn2c1Nc1ccc(-c2ccc(CO)cc2)cc1 [Compound 352] |
| < 100 | +++ |  | CCOC(=O)c1ccc(Nc2c(CC)c(N[C@H]3CC[C@H](N)CC3)nc3ccnn23)cc1 [Compound 70] |
| < 100 | ++ |  | Cc1c(N[C@H]2CC[C@H](N)CC2)nc2ccnn2c1Nc1ccc(OCCC2CCCCC2)cc1 [Compound 215] |
| < 100 | ++ |  | COc1cccc(Nc2c(C)c(N[C@H]3CC[C@H](N)CC3)nc3ccnn23)c1 [Compound 91] |
| < 100 | +++ |  | Cc1c(N[C@H]2CC[C@H](N)CC2)nc2ccnn2c1Nc1ccc2cn[nH]c2c1 [Compound 131] |
| < 100 | +++ |  | Cc1cccc(-c2ccc(Nc3c(C)c(N[C@H]4CC[C@H](N)CC4)nc4ccnn34)cc2)c1 [Compound 320] |

| SMILES | IC50 (CDK-2; [1]) [µM] | activity (efficacy against MAPKAP-K2) (MAPKAP-K2) | IC50 (CDK-2) [µM] |
| --- | --- | --- | --- |
| CCOc1ccc(Nc2c(C)c(N(C)C3CCCNC3)nc3ccnn23)cc1 (centres unmarked) [Compound 340] | < 100 | + |  |
